Assay results taken from patent publication US11331341B2, “Combination therapies that enhance antimicrobial/anticancer activities” (International Business Machines Corporation, priority 2020, dated 2022).
≈ marks a conversion by molar mass, not a printed value. Like-named read-outs stand apart in the source and are kept apart here.

How the values were obtained:
[1] = test system: therapeutic-resistant MCF7/ADR cell line; experiment: Cytotoxicity against therapeutic-resistant MCF7/ADR; type: cell-based; settings: Homo sapiens
Method: (§1) Further, Table 2 regards anticancer activity against therapeutic-susceptible MCF7 cancer cells with an incubation time of 48 hours. For the combination therapies, the cancer cells were treated with the antimicrobial polymer for 4 hours followed by treatment with doxorubicin for 44 hours. Also, Table 3 regards anticancer activity against therapeutic-resistant MCF7 cancer cells with an incubation time of 48 hours. For the combination therapies, the cancer cells were treated with the antimicrobial polymer for 4 hours followed by treatment with doxorubicin for 44 hours.

[2] = test system: therapeutic-susceptible MCF7 cancer cells; experiment: Cytotoxicity against therapeutic-susceptible MCF7; type: cell-based; settings: Homo sapiens
Method: as §1

BT474 cell line = experiment: cells; settings: Homo sapiens, BT-474, read-out: absolute IC50 in treating BT474
Source text: Cytotoxicity graph 2100 regards treating BT474 solely with doxorubicin.

[3] = test system: therapeutic-resistant SK-OV-3-TR cell line; experiment: Cytotoxicity against SK-OV-3-TR; type: cell-based; settings: SKOV3TR; FIG. 25; read-out: absolute IC50 in treating SK-OV-3-TR
Source text: Cytotoxicity graph 2500 regards treating SK-OV-3-TR solely with paclitaxel. […] Cytotoxicity graph 2502 regards treating SK-OV-3-TR solely with the example quaternary ammonium functionalized antimicrobial polymer 1402 (e.g., wherein “n” equals 21). […] Cytotoxicity graph 2504 regards treating SK-OV-3-TR solely with the example guanidinium functionalized antimicrobial polymer 1404 (e.g., wherein “m” equals 20). […] Cytotoxicity graph 2506 regards treating SK-OV-3-TR with a combination therapy of paclitaxel with 0.5 IC50 of the example quaternary ammonium functionalized antimicrobial polymer 1402 (e.g., wherein “n” equals 21). […] Cytotoxicity graph 2508 regards treating SK-OV-3-TR with a combination therapy of paclitaxel with 0.5 IC50 of example guanidinium functionalized antimicrobial polymer 1404 (e.g., wherein “m” equals 20).

[4] = test system: MCR-1-positive E. coli strains; experiment: Checkerboard assay / MIC, MCR-1-positive colistin-resistant E. coli; type: cell-based; settings: for MIC against MCR-1-positive E. coli: alone
Source text: Repetitive description of like elements employed in other embodiments described herein is omitted for sake of brevity.
Plasmid-mediated colistin-resistance has been reported in Gram-negative bacteria, which resulted from a MCR-1 enzyme that catalyzes the transfer of phosphoethanolamine to lipid A; thereby rendering the membrane more electropositive.

[5] = NCI/ADR-RES, FIG. 23 and FIG. 24, read-out: absolute IC50 in treating MCF7/ADR
[6] = MCF7, FIG. 22 and FIG. 24, read-out: absolute IC50 in treating MCF7

Which results are given for `COc1cccc2c1C(=O)c1c(O)c3c(c(O)c1C2=O)C[C@@](O)(C(=O)CO)C[C@@H]3O[C@H]1C[C@H](N)[C@H](O)[C@H](C)O1` [DOX, doxorubicin]?
IC50 [1, 5]: 139 µg/mL; IC50 ([1]; therapeutic-resistant MCF7, incubation 48 hours, combinations: polymer for 4 hours followed by doxorubicin for 44 hours, read-out: Absolute IC50): 375 µg/mL; IC50 [2, 6]: 0.15 µg/mL; IC50 ([2]; MCF7, incubation 48 hours, combinations: polymer for 4 hours followed by doxorubicin for 44 hours, read-out: Absolute IC50): 0.054 µg/mL; IC50 (BT474 cell line): 8.42 µg/mL (≈ 15.5 µM)

Which IC50 [1, 5] does the source give for `CC(=O)O[C@H]1C(=O)[C@@]2(C)[C@H]([C@H](OC(=O)c3ccccc3)[C@]3(O)C[C@H](OC(=O)[C@H](O)[C@@H](NC(=O)c4ccccc4)c4ccccc4)C(C)=C1C3(C)C)[C@]1(OC(C)=O)CO[C@@H]1C[C@@H]2O` [paclitaxel] here?
Its IC50 is 5150 µg/mL.

What about the IC50 [2, 6] of the same molecule?
The IC50 was 19.7 µg/mL.

And the IC50 [3]?
The IC50 was 27.4 µg/mL (≈ 32.1 µM).

Which “MIC against MCR-1-positive E. coli” value ([4]; first of two MCR-1-positive E. coli strains) does the source give for colistimethate sodium here?
Its value is 15.6 µg/mL.

What about the “MIC against MCR-1-positive E. coli” value ([4]; second of two MCR-1-positive E. coli strains) of the same molecule?
The value was 31.3 µg/mL.

How did the “colistin MIC against MCR-1 colistin-resistant bacteria” value ([4]; with pQuat_20 at ½×MIC) turn out when colistin was run?
Its value is < 0.49 µg/mL.
